According to EP2581085A1, “Pharmaceutical composition for nasal administration of metopimazine” (priority 2011, dated 2013):
Where two headings read alike, the source gives them in different places. Blank lines part the entries; values can stand above or below the compound they belong to.

Assays:
[1] = Pharmacokinetic study in rabbit after nasal or IV administration (plasma MPZ and AMPZ by HPLC with fluorescence detection); type: in vivo, lapin
Procedure: Le passage par voie nasale de la métopimazine a été caractérisé chez l'animal dans un modèle de référence qu'est le lapin. Les lapins utilisés étaient des femelles de race néozélandaises provenant de chez Charles River (poids 3,5 kg). La formulation testée chez le lapin a été la suivante: • Formule 1 : • Métopimazine : 10mg • NaCl : QSP 300mOsm • Tampon Citrate : QSP pH 5.5 • Eau : QSP 1ml
La posologie administrée au lapin a été calculée à partir de la dose pédiatrique soit 1 mg / kg / jour en 3 prises. Le poids des lapins étant de 3,5 kg, la dose par prise est d'environ 1 mg. La dose est donc administrée par instillation de 50 µl dans chaque narine d'une solution à 10 mg/ml.
Avant toute manipulation, le lapin est placé dans des cages de contention. Un cathéter est introduit sur chaque oreille du lapin au niveau de la veine marginale et d'une artère. Le cathéter veineux a permis d'injecter le soluté de remplissage (sérum physiologique) et le cathéter artériel a servi aux différents prélèvements sanguins tout au long de la manipulation. Les prélèvements ont été réalisés à temps réguliers : 0, 5, 10, 20, 30, 60, 120, 240 et 480 minutes. La préparation est administrée aux lapins en position supinale. Les lapins sont être maintenus dans cette position au moins 5 minutes après administration pour assurer le contact entre l'épithélium et la formulation. La solution nasale est administrée par instillation d'un volume de 50µL avec une micropipette dans chaque narine du lapin. Le volume du prélèvement est d'environ 3 mL. Après 2 h, les lapins sont placés dans leur cage avec un libre accès à la nourriture et à l'eau dans l'attente des prélèvements suivants. Le dosage est réalisé par CLHP avec détection par fluorescence en utilisant la méthode décrite par Angelo et al. J of Chrom, 496; 472-477, (1989). L'appareil de dosage est constitué d'une pompe Jasco, d'un injecteur Kontron et d'un détecteur de fluorescence Varian Prostar.
L'étude pharmacocinétique a été conduite sur le logiciel PK Solutions 2.
La formule 1 a été comparée à la voie IV. La métopimazine a été administrée dans la veine marginale de l'oreille. Les concentrations plasmatiques de la MPZ et l'AMPZ sont représentées également dans la figure 2.
Selon le même protocole, une autre formulation a été testée. • Formule 2 : • Métopimazine : 10mg • DMβCD : 21mg • NaCl : QSP 300mOsm • Tampon Citrate : QSP pH 5.5 • Eau : QSP 1ml

[2] = hepatic first-pass effect, cited from earlier work
[3] = Local tolerance study in rabbit, nasal administration for 7 days, histology of the anatomical piece; type: in vivo, lapin; design: key: Non renseigné : absent ou négligeable; +: faible intensité; ++: Intensité modérée; +++: Intensité marquée; conditions: 7 days of Formule 1 200µLx3/J
Procedure: La tolérance a été étudiée chez le lapin après administration de 2mg de Formule 1 X3/j pendant 7 jours. Chaque lapin était son propre contrôle, puisqu'une narine recevait le Vogalène pendant que la seconde recevait une solution de sérum physiologique. Après l'exposition, les lapins sont sacrifiés afin de récupérer et d'étudier la pièce anatomique.

[4] = MPZ in plasma after IV administration of métopimazine, lapin, n=2
[5] = sampling 14h after last administration, one rabbit and one sample (A-D)
[6] = sampling 70h after last administration, each column = one rabbit and one sample (A-C)

t max ([1]; in vivo): 10 min
AUC ([1]; in vivo, iv): 5765 ng/mL/min
C max ([1]; in vivo, iv): 40 ng/mL
T1/2 ([1]; in vivo, iv): 105 min
t max ([1]; in vivo, iv): 20 min
SMILES: CS(=O)(=O)c1ccc2c(c1)N(CCCN1CCC(C(=O)O)CC1)c1ccccc1S2 [AMPZ, acide de métopimazine]

t max ([1]; MPZ in plasma after IV administration of métopimazine (veine marginale de l'oreille), lapin, n=2, read-out: t max (converted)): 5 min
Cmax [1, 4]: 17.4 ng/mL
half-life [1, 4]: 72 min
AUC ([1]; MPZ in plasma after IV administration of métopimazine, lapin, n=2, read-out: AUC (converted)): 23.4 ng·h/mL
t max ([1]; MPZ in plasma after nasal administration, 50 µl in each nostril of a 10 mg/ml solution (about 1 mg), lapin, n=2, read-out: t max (converted)): 5 min
Cmax ([1]; MPZ in plasma after nasal administration, about 1 mg, lapin, n=2): 9.2 ng/mL
bioavailability ([1]; plasma, 1 mg, lapin, nasal route compared with IV, b45 = formulation tested (Formule 1), b50 = Formule 2, read-out: biodisponibilité de la MPZ par voie nasale): ~50%
SMILES: CS(=O)(=O)c1ccc2c(c1)N(CCCN1CCC(C(N)=O)CC1)c1ccccc1S2 [MPZ, métopimazine]
biodisponibilité par voie orale ([2]; oral route): 22,3%
biodisponibilité par voie rectale ([2]; rectal route): 19,5%
Hyperplasie des cellules de réserve [3, 5]: +
Inflammation dans le chorion [3, 5]: +
Perte des cellules caliciformes [3, 5]: +
Hyperplasie des cellules de réserve [3, 6]: + and ++
Inflammation épithéliale [3, 6]: + and + avec eosinophiles et lymphocytes
Perte des cellules caliciformes [3, 6]: +++ and + and ++
Perte des cils [3, 6]: +++ and + and ++
